Assay results as given in the NIST ThermoML archive (doi:10.1021/acs.jced.7b00650).

Conditions: Liquid; for viscosity: Capillary tube (Ostwald / Ubbelohde) method; for mass density: Vibrating tube method

CCCCCCCCCC [decane]
Conditions	mass density [kg/m3]	viscosity [mPa·s]
303.15 K, 2001 kPa	724.01	0.8079
303.15 K, 3991 kPa	725.58	0.8268
303.15 K, 6003 kPa	727.19	0.8461
303.15 K, 8001 kPa	728.75	0.8655
303.15 K, 9992 kPa	730.27	0.885
303.15 K, 13006 kPa	732.5	0.915
303.15 K, 16005 kPa	734.69	0.9445
303.15 K, 18998 kPa	736.88	0.9734
303.15 K, 21997 kPa	739	1.004
303.15 K, 25008 kPa	741.03	1.035
303.15 K, 27989 kPa	743.02	1.066
303.15 K, 29988 kPa	744.3	1.086
323.15 K, 1995 kPa	708.76	0.6249
323.15 K, 4003 kPa	710.68	0.6386
323.15 K, 5997 kPa	712.57	0.6529
323.15 K, 8005 kPa	714.3	0.6676
323.15 K, 10006 kPa	715.96	0.6824
323.15 K, 12995 kPa	718.36	0.7045
323.15 K, 15989 kPa	720.73	0.7274
323.15 K, 18994 kPa	723	0.7511
323.15 K, 21997 kPa	725.28	0.774
323.15 K, 25006 kPa	727.5	0.7981
323.15 K, 28004 kPa	729.62	0.822
323.15 K, 30005 kPa	731.03	0.8382
353.15 K, 5998 kPa	689.96	0.4714
353.15 K, 7997 kPa	691.97	0.4825
353.15 K, 22010 kPa	704.95	0.5612
353.16 K, 2000 kPa	685.65	0.448
353.16 K, 3999 kPa	687.9	0.4596
353.16 K, 9991 kPa	694.06	0.494
353.16 K, 13003 kPa	697.01	0.5106
353.16 K, 15994 kPa	699.86	0.5272
353.16 K, 19005 kPa	702.43	0.5442
353.16 K, 25000 kPa	707.44	0.5788
353.16 K, 27992 kPa	710.01	0.5967
353.16 K, 29995 kPa	711.67	0.6086

CCCCCCCCCCCC [dodecane]
Conditions	mass density [kg/m3]	viscosity [mPa·s]
293.21 K, 2007 kPa	750.58	1.522
293.21 K, 3977 kPa	752.18	1.56
293.21 K, 5979 kPa	753.71	1.599
293.21 K, 7982 kPa	755.06	1.639
293.21 K, 12987 kPa	758.27	1.74
293.21 K, 29985 kPa	768.5	2.106
293.22 K, 9987 kPa	756.38	1.679
293.22 K, 15986 kPa	760.07	1.801
293.22 K, 18994 kPa	761.82	1.865
293.22 K, 21995 kPa	763.63	1.929
293.22 K, 24987 kPa	765.5	1.994
293.22 K, 27987 kPa	767.37	2.061
313.1 K, 1990 kPa	736.16	1.089
313.1 K, 4017 kPa	737.72	1.116
313.1 K, 6016 kPa	739.14	1.143
313.1 K, 8014 kPa	740.64	1.171
313.1 K, 10011 kPa	742.11	1.199
313.1 K, 13007 kPa	744.26	1.241
313.1 K, 16011 kPa	746.36	1.283
313.1 K, 19017 kPa	748.61	1.326
313.1 K, 22017 kPa	750.69	1.37
313.1 K, 25019 kPa	752.63	1.414
313.1 K, 28017 kPa	754.52	1.458
313.1 K, 30020 kPa	755.75	1.489
333 K, 3976 kPa	723.61	0.8436
333.01 K, 2024 kPa	721.82	0.823
333.01 K, 5981 kPa	725.32	0.8643
333.01 K, 7987 kPa	726.99	0.885
333.01 K, 10019 kPa	728.35	0.9059
333.01 K, 13016 kPa	730.73	0.9374
333.01 K, 16014 kPa	733.04	0.9691
333.01 K, 19018 kPa	735.29	1.001
333.01 K, 22015 kPa	737.46	1.033
333.01 K, 25018 kPa	739.58	1.066
333.01 K, 28015 kPa	741.65	1.099
333.01 K, 30024 kPa	742.99	1.121
353.12 K, 2000 kPa	706.86	0.6433
353.12 K, 3991 kPa	708.83	0.6598
353.12 K, 5996 kPa	710.75	0.6763
353.12 K, 8009 kPa	712.81	0.6929
353.12 K, 10014 kPa	714.63	0.7095
353.12 K, 13006 kPa	717.28	0.7344
353.12 K, 16007 kPa	719.83	0.7594
353.12 K, 19003 kPa	722.16	0.7845
353.12 K, 22006 kPa	724.55	0.8098
353.12 K, 25008 kPa	726.87	0.8352
353.12 K, 28011 kPa	729.13	0.8607
353.12 K, 30007 kPa	730.59	0.8778

CCCCCCCCC [nonane]
Conditions	mass density [kg/m3]	viscosity [mPa·s]
293.21 K, 1993 kPa	719.36	0.7109
293.21 K, 3991 kPa	721.16	0.7266
293.21 K, 5993 kPa	722.88	0.7426
293.21 K, 7996 kPa	724.42	0.7587
293.21 K, 10001 kPa	725.92	0.775
293.21 K, 13001 kPa	728	0.8
293.21 K, 19004 kPa	732.11	0.8517
293.21 K, 22005 kPa	734.14	0.8782
293.21 K, 24997 kPa	736.13	0.9052
293.21 K, 27997 kPa	738.31	0.9329
293.21 K, 29995 kPa	739.58	0.9516
293.22 K, 16000 kPa	730.02	0.8254
313.1 K, 19007 kPa	718.18	0.6634
313.1 K, 22007 kPa	720.52	0.6827
313.1 K, 25009 kPa	722.7	0.7023
313.1 K, 28007 kPa	724.82	0.7222
313.1 K, 30010 kPa	726.21	0.7357
313.11 K, 2000 kPa	704.08	0.559
313.11 K, 4007 kPa	705.88	0.5709
313.11 K, 6006 kPa	707.62	0.5829
313.11 K, 8004 kPa	709.24	0.595
313.11 K, 10007 kPa	710.92	0.6072
313.11 K, 13003 kPa	713.28	0.6256
313.11 K, 16007 kPa	715.76	0.6444
333 K, 2014 kPa	688.53	0.4535
333 K, 3990 kPa	690.6	0.4631
333 K, 5995 kPa	692.58	0.4727
333.01 K, 8001 kPa	694.51	0.4824
333.01 K, 10007 kPa	696.11	0.4921
333.01 K, 13004 kPa	698.84	0.5067
333.01 K, 16002 kPa	701.48	0.5215
333.01 K, 19006 kPa	704.03	0.5364
333.01 K, 22003 kPa	706.5	0.5515
333.01 K, 25006 kPa	708.9	0.5667
333.01 K, 28003 kPa	711.23	0.5821
333.01 K, 30012 kPa	712.74	0.5925
353.12 K, 2004 kPa	672.27	0.3733
353.12 K, 3995 kPa	674.59	0.3814
353.12 K, 6000 kPa	676.83	0.3894
353.12 K, 8005 kPa	679.1	0.3975
353.12 K, 10010 kPa	681.31	0.4056
353.12 K, 13002 kPa	684.37	0.4178
353.12 K, 16003 kPa	687.3	0.43
353.12 K, 18999 kPa	689.99	0.4422
353.12 K, 22002 kPa	692.72	0.4546
353.12 K, 25004 kPa	695.35	0.467
353.12 K, 28007 kPa	697.9	0.4795
353.12 K, 30003 kPa	699.56	0.4879
